We go through one molecule from article PMC5511861, “DS16570511 is a small-molecule inhibitor of the mitochondrial calcium uniporter” (Cell Death Discovery, 2017).

Assay [1] concerns Ca2+ uptake of pig heart mitochondria. Kind of assay: Ca2+ uptake assay using isolated pig heart mitochondria (atomic absorbance spectrometer). The class given is biochemical. The settings on record: 100 μM CaCl2; read-out: IC50, inhibition of Ca2+ uptake of pig heart mitochondria. How it is done:
We then asked whether DS16570511 inhibits Ca^2+ uptake in isolated mitochondria from animal heart. An atomic absorbance spectrometer-based detection method was employed to analyze intramitochondrial Ca^2+ levels. We prepared freshly isolated mitochondria from pig heart, and the mitochondria were incubated with 100 μM CaCl2.
(a) Effect of RuR on Ca^2+ uptake of pig heart mitochondria. […] Data are mean with S.E.M. from three independent samples. (b) Inhibition rate of RuR or DS16570511 on Ca^2+ uptake of pig heart mitochondria. Inhibition 0 or 100% is defined as a value of Ca^2+-untreated mitochondria or Ca^2+-treated mitochondria, respectively. Data are mean with S.E.M. from three independent samples. (c) Inhibition rate of RuR or DS16570511 on Ca^2+ uptake of rat heart mitochondria. Data are mean with S.E.M./variation from three or two independent samples for DS16570511 or RuR, respectively.
Mitochondria were isolated by using the mitochondria isolation kit and then dissolved in the swelling buffer. The protein concentration of the mitochondrial solution was 5 mg/ml. Thirty minutes after application of CaCl2 (final concentration of 100 μM) to the solution, the mitochondria were collected by centrifugation (3000 g) at 4 °C. The pellets were resuspended in the swelling buffer containing 1 μM RuR. After collection of the mitochondria by centrifugation (3000 g), the pellets were dried and dissolved by 40 μl of sulfuric acid at 95 °C.

Another assay addresses T1, MCU (Homo sapiens, UniProt Q8NE86).
T1 construct: expressed in transfected cells; host or cells: HEK293A cells, transient co-transfection with the mitochondria-targeted aequorin vector
T1 sequence (Q8NE86 51-351): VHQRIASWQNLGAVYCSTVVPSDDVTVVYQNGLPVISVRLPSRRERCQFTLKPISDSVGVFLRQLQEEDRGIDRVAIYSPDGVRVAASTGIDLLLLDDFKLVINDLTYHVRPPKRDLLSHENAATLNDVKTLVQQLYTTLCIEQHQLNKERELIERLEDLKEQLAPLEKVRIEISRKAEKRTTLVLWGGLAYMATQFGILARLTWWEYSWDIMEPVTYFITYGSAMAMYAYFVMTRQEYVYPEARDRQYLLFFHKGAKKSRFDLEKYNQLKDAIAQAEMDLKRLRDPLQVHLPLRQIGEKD
T1 sequence (Q9H4I9 48-107 partner limits assumed): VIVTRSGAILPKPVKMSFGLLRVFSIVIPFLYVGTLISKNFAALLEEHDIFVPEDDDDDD
Nature of the assay: MCU-dependent mitochondrial Ca2+ influx in HEK293A cells overexpressing human MCU. The class given is cell-based. The settings on record: pretreatment. The source says:
Next, to investigate the molecular component of the mitochondrial calcium uniporter, MCU-dependent and MICU-dependent Ca^2+ influx were examined. […] The MCU-dependent increment of Ca^2+ influx was blocked by the DS16570511 pretreatment (Figure 5b). We then investigated the effects of the inhibitor on the regulatory subunit MICU1. Previous studies have shown that MICU1 facilitates mitochondrial Ca^2+ uptake through the presence of a high Ca^2+ level.[11],[22]
Figure 5 DS16570511 inhibits mitochondrial Ca^2+ influx by MCU or MICU1. (a) Effect of overexpression of MCU or MICU1 on mitochondrial Ca^2+ influx in HEK293A cells. (b) Effect of DS16570511 on MCU-dependent mitochondrial Ca^2+ uptake in HEK293A cells. (c) Effect of DS16570511 on MICU1-dependent mitochondrial Ca^2+ uptake in HEK293A cells. […]
In order to evaluate mitochondrial Ca^2+ uptake activity by MCU or MICU1, HEK293A cells were transiently transfected with the mitochondria-targeted aequorin vector and pcDNA3.1 vector containing human Mcu (NCBI Reference Sequence: NM_138357.2) or Micu1 (NM_001195518.1). One day after the transfection, the luminescence levels were measured as described above. MCU- or MICU1-dependent activity was calculated by subtracting the luminescence level of cells transfected with empty vector from that of cells expressing MCU or MICU1, respectively.

The target of assay [2] is T2, mitochondrial calcium uniporter (Homo sapiens, UniProt Q8NE86).
T2 sequence (Q8NE86 51-351): T1 sequence (Q8NE86 51-351)
T2 sequence (Q9H4I9 48-107 partner limits assumed): T1 sequence (Q9H4I9 48-107 partner limits assumed)
Nature of the assay: Ca2+ uptake of isolated mitochondria from HEK293A cells (aequorin luminescence). Format: biochemical. Conditions: 100 μM Ca2+, 5 min preincubation; read-out: IC50, inhibition of Ca2+ uptake of isolated mitochondria from HEK293A cells. Details: isolated mitochondria from HEK293A cells were used; endogenous in cells; host or cells: mitochondria isolated from HEK293A cells stably expressing mitochondria-targeted aequorin. How it is done: Mitochondrial Ca^2+ uptake activity is regulated by cytosolic protein kinase signaling,[19] raising the possibility that HTS hits contained indirect inhibitors of the uniporter, such as inhibitors of cytosolic signaling. To examine the direct inhibitory effect of the compounds on the mitochondrial Ca^2+ uptake, isolated mitochondria from HEK293A cells were used. Ca^2+ uptake of the isolated mitochondria was observed as a rapid increase in the luminescence level after application of 100 μM Ca^2+ (Figure 2a).
Figure 2 DS16570511 inhibits Ca^2+ uptake in isolated mitochondria from HEK293A cells. (a) Representative raw data of Ca^2+ uptake in isolated mitochondria. (b) Effect of DS16570511 or Ru360 on mitochondrial Ca^2+ uptake. The area under the curve of temporal aequorin activities is used for calculation of inhibitory activities. Inhibition 0 or 100% is defined as a value of […], respectively. Data are mean with S.E.M. from three independent samples.
To monitor Ca^2+ uptake activity of isolated mitochondria, mitochondria were prepared from the cells (1×10^8 cells) stably expressing mitochondria-targeted aequorin by using a mitochondria isolation kit. […] The luminescence levels were detected as described above.

With `Cc1onc(-c2c(Cl)cccc2Cl)c1CNc1cccc(C(=O)c2cn(CCCC(=O)O)c3ccccc23)c1` [DS16570511], the results for the IC50 in assay [1] and in assay [2] were 15 µM and 0.86 µM, respectively. For the same molecule, on MCU, the “effect on MCU-dependent increment of mitochondrial Ca2+ influx” value is on record as “blocked”.

In general, IC50 refers to the point on the concentration scale where inhibition reaches its midpoint.
